Source: PubChem BioAssay AID1963981 (Molecular Pharmacology Branch, DTP, NCI, 2024)
Values joined by “and” are separate entries in the source; they are usually repeats but may differ in a detail not shown here. Identical values can stand only once.

Tested on: 354836-022-R-J1-PDC multicell spheroid viability
Assay: Anticancer human tumor 354836-022-R-J1-PDC patient-derived head and neck squamous cell carcinoma cell line growth inhibition [PI3K]
Settings: for viability, T/C: stronger effect = lower value
How it was run: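 High-throughput combination screen: PI3K inhibitors crossed with targeted small molecules on complex spheroids of tumor cells, HUVEC and MSCs at 37 degrees C, 5% CO2. Top concentration was at or near clinical Cmax (otherwise 10 microM), with half-log decrements.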

[1] = curve of first compound, second compound 0.00316 µM
[2] = curve of first compound, second compound 0.01 µM
[3] = curve of first compound, second compound 0.0316 µM
[4] = curve of first compound, second compound 0.1 µM
[5] = curve of first compound, second compound 0.316 µM
[6] = curve of first compound, second compound 1 µM
[7] = second compound 0.00316 µM, first compound 0.0316 µM
[8] = second compound 0.00316 µM, first compound 0.1 µM
[9] = second compound 0.00316 µM, first compound 0.316 µM
[10] = second compound 0.00316 µM, first compound 1 µM
[11] = second compound 0.00316 µM, first compound 3.16 µM
[12] = second compound 0.00316 µM, first compound 10 µM
[13] = second compound 0.01 µM, first compound 0.0316 µM
[14] = second compound 0.01 µM, first compound 0.1 µM
[15] = second compound 0.01 µM, first compound 0.316 µM
[16] = second compound 0.01 µM, first compound 1 µM
[17] = second compound 0.01 µM, first compound 3.16 µM
[18] = second compound 0.01 µM, first compound 10 µM
[19] = second compound 0.0316 µM, first compound 0.0316 µM
[20] = second compound 0.0316 µM, first compound 0.1 µM
[21] = second compound 0.0316 µM, first compound 0.316 µM
[22] = second compound 0.0316 µM, first compound 1 µM
[23] = second compound 0.0316 µM, first compound 3.16 µM
[24] = second compound 0.0316 µM, first compound 10 µM
[25] = second compound 0.1 µM, first compound 0.0316 µM
[26] = second compound 0.1 µM, first compound 0.1 µM
[27] = second compound 0.1 µM, first compound 0.316 µM
[28] = second compound 0.1 µM, first compound 1 µM
[29] = second compound 0.1 µM, first compound 3.16 µM
[30] = second compound 0.1 µM, first compound 10 µM
[31] = second compound 0.316 µM, first compound 0.0316 µM
[32] = second compound 0.316 µM, first compound 0.1 µM
[33] = second compound 0.316 µM, first compound 0.316 µM
[34] = second compound 0.316 µM, first compound 1 µM
[35] = second compound 0.316 µM, first compound 3.16 µM
[36] = second compound 0.316 µM, first compound 10 µM
[37] = second compound 1 µM, first compound 0.0316 µM
[38] = second compound 1 µM, first compound 0.1 µM
[39] = second compound 1 µM, first compound 0.316 µM
[40] = second compound 1 µM, first compound 1 µM
[41] = second compound 1 µM, first compound 3.16 µM
[42] = second compound 1 µM, first compound 10 µM
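Also: spheroids exposed to agents for seven days before the viability read.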

For `C[C@@H](NC(=O)c1ncnc(N)c1Cl)c1ncc(C(=O)Nc2cc(C(F)(F)F)c(Cl)cn2)s1` + CC(Nc1ccc2c(c1)OCCn1cc(N3C(=O)OCC3C(F)F)nc1-2)C(N)=O, the IC50 [1] was > 10000 nM, the IC50 [2] was > 10000 nM and the IC50 [3] was > 10000 nM. For the same molecule, the IC50 [4] was > 10000 nM, the IC50 [5] was > 10000 nM and the IC50 [6] was > 10000 nM. The viability, T/C [7] was 98.4%, the viability, T/C [8] was 92.4% and the viability, T/C [9] was 103%. The viability, T/C [10] was 109%, the viability, T/C [11] was 107% and the viability, T/C [12] was 67.5%. The viability, T/C [13] was 108%, the viability, T/C [14] was 90.9% and the viability, T/C [15] was 91.4%. For the same molecule, the viability, T/C [16] was 104%, the viability, T/C [17] was 110% and the viability, T/C [18] was 64.1%. The viability, T/C [19] was 92.1%, the viability, T/C [20] was 93.1% and the viability, T/C [21] was 102%. The viability, T/C [22] was 111%, the viability, T/C [23] was 103% and the viability, T/C [24] was 71.9%. The viability, T/C [25] was 82.2%, the viability, T/C [26] was 93.8% and the viability, T/C [27] was 94.9%. For the same molecule, the viability, T/C [28] was 92.3%, the viability, T/C [29] was 88.5% and the viability, T/C [30] was 71.6%. It also gave a viability, T/C [31] of 74.4%, a viability, T/C [32] of 75.9% and a viability, T/C [33] of 82.9%. For the same molecule, the viability, T/C [34] was 84.6%, the viability, T/C [35] was 88.1% and the viability, T/C [36] was 58.1%. The viability, T/C [37] was 63%, the viability, T/C [38] was 62.2% and the viability, T/C [39] was 62.9%. The viability, T/C [40] was 65.2%, the viability, T/C [41] was 74.5% and the viability, T/C [42] was 53.6%.

For `CCCS(=O)(=O)Nc1ccc(F)c(C(=O)c2c[nH]c3ncc(-c4ccc(Cl)cc4)cc23)c1F`, the viability, T/C (compound 0.1 µM) was 109% [middle of 4 runs], the viability, T/C (compound 0.316 µM) was 104% [middle of 4 runs] and the viability, T/C (compound 1 µM) was 91.5% [middle of 4 runs]. For the same molecule, the viability, T/C (compound 3.16 µM) was 86% [middle of 4 runs], the viability, T/C (compound 10 µM) was 24.8% [middle of 4 runs] and the IC50 (curve of compound) was 6.06 µM [middle of 4 runs].

Work on `Cn1ncc(Cl)c1-c1cc(C(=O)NC(CN)Cc2cccc(F)c2)sc1Cl` (stereo unspecified) + COc1c(OCCCN2CCOCC2)ccc2c3n(c(=NC(=O)c4cnc(N)nc4)nc12)CCN3 yielded an IC50 [1] of 148 nM, an IC50 [2] of 220 nM and an IC50 [3] of 116 nM. For the same molecule, the IC50 [4] was < 31.6 nM, the IC50 [5] was < 31.6 nM and the IC50 [6] was < 31.6 nM. For the same molecule, the viability, T/C [7] was 78%, the viability, T/C [8] was 56% and the viability, T/C [9] was 37.3%. The viability, T/C [10] was 23.2%, the viability, T/C [11] was 8.77% and the viability, T/C [12] was 1.45%. It also gave a viability, T/C [13] of 73%, a viability, T/C [14] of 74.2% and a viability, T/C [15] of 37.2%. For the same molecule, the viability, T/C [16] was 19%, the viability, T/C [17] was 8.38% and the viability, T/C [18] was 1.92%. For the same molecule, the viability, T/C [19] was 66.7%, the viability, T/C [20] was 52.8% and the viability, T/C [21] was 33.1%. It also gave a viability, T/C [22] of 16.1%, a viability, T/C [23] of 8.7% and a viability, T/C [24] of 2.85%. For the same molecule, the viability, T/C [25] was 45.2%, the viability, T/C [26] was 33.6% and the viability, T/C [27] was 20.1%. It also gave a viability, T/C [28] of 8.6%, a viability, T/C [29] of 2.88% and a viability, T/C [30] of 0.98%. It also gave a viability, T/C [31] of 14.4%, a viability, T/C [32] of 10.3% and a viability, T/C [33] of 5.2%. It also gave a viability, T/C [34] of 2.69%, a viability, T/C [35] of 3.48% and a viability, T/C [36] of 1.06%. For the same molecule, the viability, T/C [37] was 1.56%, the viability, T/C [38] was 1.83% and the viability, T/C [39] was 1.63%. For the same molecule, the viability, T/C [40] was 2.2%, the viability, T/C [41] was 1.8% and the viability, T/C [42] was 1.4%.

`CCN1CCN(Cc2ccc(Nc3ncc(F)c(-c4cc(F)c5nc(C)n(C(C)C)c5c4)n3)nc2)CC1` + Cc1nc(NC(=O)N2CCCC2C(N)=O)sc1-c1ccnc(C(C)(C)C(F)(F)F)c1 was tested, and the IC50 [3] was > 1000 nM, the IC50 [4] was > 1000 nM and the IC50 [5] was > 1000 nM. The IC50 [6] was 455 nM, the IC50 (curve of first compound, second compound 3.16 µM) was 322 nM and the IC50 (curve of first compound, second compound 10 µM) was < 3.16 nM. The viability, T/C (second compound 0.0316 µM, first compound 0.00316 µM) was 107%, the viability, T/C (second compound 0.0316 µM, first compound 0.01 µM) was 82.5% and the viability, T/C [19] was 97.9%. For the same molecule, the viability, T/C [20] was 90.9%, the viability, T/C [21] was 99.7% and the viability, T/C [22] was 62.8%. It also gave a viability, T/C (second compound 0.1 µM, first compound 0.00316 µM) of 94.4%, a viability, T/C (second compound 0.1 µM, first compound 0.01 µM) of 82.5% and a viability, T/C [25] of 91.5%. The viability, T/C [26] was 77.7%, the viability, T/C [27] was 91.8% and the viability, T/C [28] was 69.1%. For the same molecule, the viability, T/C (second compound 0.316 µM, first compound 0.00316 µM) was 87.6%, the viability, T/C (second compound 0.316 µM, first compound 0.01 µM) was 96.4% and the viability, T/C [31] was 69.5%. It also gave a viability, T/C [32] of 92%, a viability, T/C [33] of 84.2% and a viability, T/C [34] of 51.1%. For the same molecule, the viability, T/C (second compound 1 µM, first compound 0.00316 µM) was 67.9%, the viability, T/C (second compound 1 µM, first compound 0.01 µM) was 90.8% and the viability, T/C [37] was 63.2%. The viability, T/C [38] was 67.8%, the viability, T/C [39] was 59.5% and the viability, T/C [40] was 33.3%. The viability, T/C (second compound 3.16 µM, first compound 0.00316 µM) was 51.9%, the viability, T/C (second compound 3.16 µM, first compound 0.01 µM) was 61.8% and the viability, T/C (second compound 3.16 µM, first compound 0.0316 µM) was 54.4%. For the same molecule, the viability, T/C (second compound 3.16 µM, first compound 0.1 µM) was 59.3%, the viability, T/C (second compound 3.16 µM, first compound 0.316 µM) was 49.8% and the viability, T/C (second compound 3.16 µM, first compound 1 µM) was 18.8%. It also gave a viability, T/C (second compound 10 µM, first compound 0.00316 µM) of 31.8%, a viability, T/C (second compound 10 µM, first compound 0.01 µM) of 36.6% and a viability, T/C (second compound 10 µM, first compound 0.0316 µM) of 35%. The viability, T/C (second compound 10 µM, first compound 0.1 µM) was 28.9%, the viability, T/C (second compound 10 µM, first compound 0.316 µM) was 25.2% and the viability, T/C (second compound 10 µM, first compound 1 µM) was 9.14%.

With `Cn1ncc(Cl)c1-c1cc(C(=O)NC(CN)Cc2cccc(F)c2)sc1Cl` (stereo unspecified) + CC(Nc1ccc2c(c1)OCCn1cc(N3C(=O)OCC3C(F)F)nc1-2)C(N)=O the IC50 [1] was 85.2 nM, the IC50 [2] was 92.4 nM and the IC50 [3] was 105 nM. For the same molecule, the IC50 [4] was 129 nM, the IC50 [5] was 92.9 nM and the IC50 [6] was 37.2 nM. The viability, T/C [7] was 64.3%, the viability, T/C [8] was 48.1% and the viability, T/C [9] was 33.3%. The viability, T/C [10] was 20.1%, the viability, T/C [11] was 19.9% and the viability, T/C [12] was 5.31%. The viability, T/C [13] was 75.2%, the viability, T/C [14] was 47.5% and the viability, T/C [15] was 30.2%. For the same molecule, the viability, T/C [16] was 18.9%, the viability, T/C [17] was 18.3% and the viability, T/C [18] was 5.41%. The viability, T/C [19] was 66.6%, the viability, T/C [20] was 56.4% and the viability, T/C [21] was 27.3%. For the same molecule, the viability, T/C [22] was 23.9%, the viability, T/C [23] was 16.9% and the viability, T/C [24] was 3.21%. It also gave a viability, T/C [25] of 83.1%, a viability, T/C [26] of 56% and a viability, T/C [27] of 29.9%. The viability, T/C [28] was 24.2%, the viability, T/C [29] was 15.9% and the viability, T/C [30] was 4.25%. For the same molecule, the viability, T/C [31] was 71%, the viability, T/C [32] was 48.8% and the viability, T/C [33] was 30.7%. It also gave a viability, T/C [34] of 20.5%, a viability, T/C [35] of 12.9% and a viability, T/C [36] of 5.46%. It also gave a viability, T/C [37] of 50.6%, a viability, T/C [38] of 45.2% and a viability, T/C [39] of 32.2%. For the same molecule, the viability, T/C [40] was 25%, the viability, T/C [41] was 13% and the viability, T/C [42] was 4.09%.

With `CC(C)n1nc(-c2ccc3oc(N)nc3c2)c2c(N)ncnc21` the viability, T/C (compound 0.000316 µM) was 92.8% [middle of 4 runs], the viability, T/C (compound 0.001 µM) was 84.9% [middle of 4 runs] and the viability, T/C (compound 0.00316 µM) was 78.9% [middle of 4 runs]. The viability, T/C (compound 0.01 µM) was 52% [middle of 4 runs], the viability, T/C (compound 0.0316 µM) was 28.9% [middle of 4 runs] and the viability, T/C (compound 0.1 µM) was 11.4% [middle of 4 runs]. For the same molecule, the IC50 (curve of compound) was 9.59 nM and 12 nM and 11.8 nM.
